Like-named read-outs stand apart in the source and are kept apart here. Starred links: 1 amine or outer side, 2 acyl side, 3 side chain; linkers in the order of their positions; H or OH if unused. Non-standard residues stand in square brackets, D forms with d. Residues, ends and D or L forms follow the SMILES beside them. X2 = Nc1ncnc2c1ncn2[C@@H]1O[C@H](COP(=O)(O)OP(=O)(O)OC[C@H]2O[C@@H](n3nncc3C[C@H](N[*:1])C(=O)[*:2])[C@H](O)[C@@H]2O)[C@@H](O)[C@H]1O; X1 = Nc1ncnc2c1ncn2[C@@H]1O[C@H](COP(=O)(O)OP(=O)(O)OC[C@H]2O[C@H](n3nncc3C[C@H](N[*:1])C(=O)[*:2])[C@H](O)[C@@H]2O)[C@@H](O)[C@H]1O
How the values were obtained:
ARH3 = ARH3 (Homo sapiens, UniProt Q9NX46); details: 10 μM peptide, 0.5 μM hydrolase, 30 C, AMP-Glo luminescence, normalized to NudT16; for ARH3-mediated hydrolysis of the N-glycosidic linkage: 60 min, 50 mM TrisHCl pH 8, 200 mM NaCl, 10 mM MgCl2, 1 mM DTT, 0.2 μM human NUDT5
Method: (§1) Samples were extracted at different time points (2, 4, 8, 24, 48, and 169 h) and quenched with TFA prior to LC-MS injection. Peptide degradation was quantified by analyzing the UV-trace (260 nm) using Xcalibur software. […] Enzymatic turnover of the various peptides was assessed by monitoring AMP release directly (NudT16) or converting released ADPr via NudT5 to AMP. AMP was measured using the AMP-Glo assay (Promega). Samples are background corrected and normalized to NudT16 activity.

[1] = 0.1 M NaOH; for additional peaks of identical mass (isomerization) after NaOH treatment: LC-MS
Method: With all four ADPr-His* conjugates available, we next evaluated their stability under various conditions in a liquid-chromatography mass-spectrometry (LC-MS) based assay. The conditions surveyed (NH2OH, TFA, and NaOH) were selected because of their frequent occurrence in ADP-ribosylome-focused proteomics studies.
as §1
Figure S3. UV-trace (260 nm) of the obtained LC-MS spectra after treating β-configured 1,5-disubstituted triazole 24 with 0.1 M NaOH at various time points.
(1 picture or pasted object on this page, not shown here)
Figure S6. UV-trace (260 nm) of the obtained LC-MS spectra after treating α-configured 1,5-disubstituted triazole 29 with 0.1 M NaOH at various time points.

[2] = 0 h, quenched with TFA, LC-MS UV-trace 260 nm
[3] = 2 h, quenched with TFA, LC-MS UV-trace 260 nm
[4] = 4 h, quenched with TFA, LC-MS UV-trace 260 nm
[5] = 8 h, quenched with TFA, LC-MS UV-trace 260 nm
[6] = 24 h, quenched with TFA, LC-MS UV-trace 260 nm
[7] = 48 h, quenched with TFA, LC-MS UV-trace 260 nm
[8] = 169 h, quenched with TFA, LC-MS UV-trace 260 nm

Chain of ARH3 (Q9NX46 whole entry): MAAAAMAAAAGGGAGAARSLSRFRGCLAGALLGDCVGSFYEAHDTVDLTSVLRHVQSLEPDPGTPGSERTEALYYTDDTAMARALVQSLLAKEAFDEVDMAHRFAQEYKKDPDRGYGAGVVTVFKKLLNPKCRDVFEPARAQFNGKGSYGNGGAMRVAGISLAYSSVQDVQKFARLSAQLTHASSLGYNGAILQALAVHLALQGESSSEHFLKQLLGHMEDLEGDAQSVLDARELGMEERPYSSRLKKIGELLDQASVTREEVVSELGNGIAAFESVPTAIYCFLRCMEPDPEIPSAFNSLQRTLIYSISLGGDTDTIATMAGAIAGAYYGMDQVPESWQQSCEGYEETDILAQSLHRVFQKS

| SMILES | ARH3-mediated hydrolysis of the N-glycosidic linkage (ARH3) | additional peaks of identical mass (isomerization) after NaOH treatment ([1]; 24 h) [%] | conversion by ARH3 (ARH3; within the 1 h reaction, pH 8) [%] | Accumulated isomers (%) [1, 2] [%] | Intact peptide (%) [1, 2] [%] | Accumulated isomers (%) [1, 3] [%] | Intact peptide (%) [1, 3] [%] | Accumulated isomers (%) [1, 4] [%] | Intact peptide (%) [1, 4] [%] | Accumulated isomers (%) [1, 5] [%] | Intact peptide (%) [1, 5] [%] | Accumulated isomers (%) [1, 6] [%] | Intact peptide (%) [1, 6] [%] | Accumulated isomers (%) [1, 7] [%] | Intact peptide (%) [1, 7] [%] | Accumulated isomers (%) [1, 8] [%] | Intact peptide (%) [1, 8] [%] | original peptide present after NaOH treatment ([1]; after 12 h, time course, quenched with TFA, LC-MS UV-trace 260 nm) [%] |
| --- | --- | --- | --- | --- | --- | --- | --- | --- | --- | --- | --- | --- | --- | --- | --- | --- | --- | --- |
| CC(C)C[C@H](NC(=O)CNC(=O)[C@H](C)NC(=O)CNC(=O)[C@H](Cc1cn([C@@H]2O[C@H](COP(=O)(O)OP(=O)(O)OC[C@H]3O[C@@H](n4cnc5c(N)ncnc54)[C@H](O)[C@@H]3O)[C@@H](O)[C@H]2O)nn1)NC(=O)[C@H](Cc1ccccc1)NC(=O)[C@@H](N)[C@@H](C)O)C(=O)N[C@H](C(=O)N[C@H](C(=O)N1CCC[C@H]1C(=O)N[C@H](C(=O)N[C@@H](CC(=O)O)C(=O)N[C@@H](CCCCN)C(=O)O)C(C)C)C(C)C)C(C)C [compound 23] | unaffected | 5 | – | – | – | – | – | – | – | – | – | – | – | – | – | – | – | – |
| CC(C)C[C@H](NC(=O)CNC(=O)[C@H](C)NC(=O)CNC(=O)[C@H](Cc1cnnn1[C@H]1O[C@H](COP(=O)(O)OP(=O)(O)OC[C@H]2O[C@@H](n3cnc4c(N)ncnc43)[C@H](O)[C@@H]2O)[C@@H](O)[C@H]1O)NC(=O)[C@H](Cc1ccccc1)NC(=O)[C@@H](N)[C@@H](C)O)C(=O)N[C@H](C(=O)N[C@H](C(=O)N1CCC[C@H]1C(=O)N[C@H](C(=O)N[C@@H](CC(=O)O)C(=O)N[C@@H](CCCCN)C(=O)O)C(C)C)C(C)C)C(C)C [compound 29] (H-TF[X1]GAGLVVPVDK-OH) | capable of hydrolyzing | – | ~50 | 0 | 100 | 26 | 74 | 40 | 60 | 51 | 49 | 61 | 39 | 62 | 38 | 62 | 38 | – |
| CC(C)C[C@H](NC(=O)CNC(=O)[C@H](C)NC(=O)CNC(=O)[C@H](Cc1cnnn1[C@@H]1O[C@H](COP(=O)(O)OP(=O)(O)OC[C@H]2O[C@@H](n3cnc4c(N)ncnc43)[C@H](O)[C@@H]2O)[C@@H](O)[C@H]1O)NC(=O)[C@H](Cc1ccccc1)NC(=O)[C@@H](N)[C@@H](C)O)C(=O)N[C@H](C(=O)N[C@H](C(=O)N1CCC[C@H]1C(=O)N[C@H](C(=O)N[C@@H](CC(=O)O)C(=O)N[C@@H](CCCCN)C(=O)O)C(C)C)C(C)C)C(C)C [compound 24] (H-TF[X2]GAGLVVPVDK-OH) | unaffected | – | – | 0 | – | 39 | 61 | 48 | – | – | – | – | – | 71 | 29 | 71 | 29 | 38 |
| CC(C)C[C@H](NC(=O)CNC(=O)[C@H](C)NC(=O)CNC(=O)[C@H](Cc1cn([C@H]2O[C@H](COP(=O)(O)OP(=O)(O)OC[C@H]3O[C@@H](n4cnc5c(N)ncnc54)[C@H](O)[C@@H]3O)[C@@H](O)[C@H]2O)nn1)NC(=O)[C@H](Cc1ccccc1)NC(=O)[C@@H](N)[C@@H](C)O)C(=O)N[C@H](C(=O)N[C@H](C(=O)N1CCC[C@H]1C(=O)N[C@H](C(=O)N[C@@H](CC(=O)O)C(=O)N[C@@H](CCCCN)C(=O)O)C(C)C)C(C)C)C(C)C [compound 28] | very weakly | 12 | – | – | – | – | – | – | – | – | – | – | – | – | – | – | – | – |
